Experimental data as given in PMC10571957, “αV-Integrin-Dependent Inhibition of Glioblastoma Cell Migration, Invasion and Vasculogenic Mimicry by the uPAcyclin Decapeptide” (Cancers, 2023).

Experiments:
[1] = system: U87-MG cells; experiment: Wound healing assay, U87-MG; assay type: cell-based, human; details: for residual space, % of the initial wound: 24 h (untreated 15%)
Description: The wound healing assay or scratch test was performed as previously reported. Briefly, 6 × 10^3 U87-MG cells were seeded in multiwell-12 plates containing culture inserts for live cell analysis (Ibidi, Gmbh, Martinsried, Germany) and grown to confluence in DMEM/10% FBS for 24 h. After removing the inserts, the cells were pre-treated for 40 min at 37 °C with uPAcyclin or diluents at the indicated concentrations, and then incubated in DMEM/3% FBS for 24 h. The images were taken using the Inverted Microscope Leica DMI6000 DFC 402 (Leica Microsystems, Milan, Italy). A total of 10 × 10^4 C6 cells were grown to confluence in 12-well plates, in the presence of DMEM/10% FBS. Then, the cell monolayers were wounded with a yellow tip, pre-incubated with uPAcyclin (10 pM and 100 nM) or diluents, and incubated in DMEM/2.5% FBS for 16 h. The images were obtained using the Inverted Axiovert 25 Microscope, equipped with the Zen 3.3 Software. To quantitate cell migration, a rectangle covering the wound edges is drawn on the T0 image and is further applied to the single photograms of each sample. The average margin distance is measured at three points and the results are expressed as percentage wound width of the T0 distance, taken as 100%.
Figure 5 Wound healing assay of U87-MG and C6 cells, in the presence of uPAcyclin. (A) U87-MG cells were grown to confluence in multiwell-12 plates with inserts, pre-incubated with uPAcyclin (10 pM or 100 nM) or diluents for 40 min at 37 °C, and then exposed to 3% FBS, in the presence of uPAcyclin or diluents, as reported. Images were taken at time 0 (T0) and 24 h (T24) and representative images are shown (50× total magnification, scale bar: 250 µm). […] (C) For both U87-MG and C6, the wound width at time 0 is taken as 100% and the wound width at T24 or T16 is calculated as relative to that (* p-value < 0.05; ** p-value < 0.005; *** p-value < 0.001).

[2] = system: U251-MG cells; experiment: Vasculogenic mimicry (tube formation on Geltrex), U251-MG; assay type: cell-based, human; details: 24 h
Description: The tube formation assay was performed in 96-well plates pre-coated with 50 µL/well of Geltrex^TM (Thermofisher, Scientific, Waltham, MA, USA), and polymerized for 30 min at 37 °C. Briefly, 3 × 10^4 U87-MG, 1.5 × 10^4 U251, and 1 × 10^4 C6 cells/100µL/well were plated onto Geltrex^TM and monitored at 37 °C for the indicated times. The specific effectors were included at time 0. The formation of vascular-like structures by Geltrex^TM-plated U87-MG and U251-MG cells was monitored for 24 h, whereas C6 cells were tested for 16 h. The evaluation of the branching point number, defined as the intersection of at least 3 tubes [24], was performed using the Inverted Microscope DMI Leica 6000 for the U87-MG and U251-MG cells and the Inverted Microscope Axiovert 25 for the C6 cells. At the indicated times, the number of “branching points” was assessed in 4/5 random fields using the ImageJ 1.52a Software.
Figure 8 Vascular mimicry formation and VE-cadherin expression inhibited by uPAcyclin in U251-MG cells. […] (B) The quantitation of the branching point number is described in the legend to Figure 6B. […] The densitometric quantitation of VE-cadherin bands is shown (right panel) (* p-value < 0.05; *** p-value < 0.001).

Ac-K^1P[ESPPEELK^10]-NH2 (sidechain bridge or staple) [uPAcyclin]
residual space, % of the initial wound ([1]; 10 pM): 30% | residual space, % of the initial wound ([1]; 100 nM): 60% | reduction of wound healing rate closure ([1]; abstract): 50% | branching number per field decreased to ([2]; 1 nM): 20% | branching number per field decreased to ([2]; 100 nM): 15%
